Measured values reported in ChEMBL document CHEMBL1201862, “PubChem BioAssay data set” (2004).
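Results reflect a 48-hour exposure of cells in 96-well plates to compound at five concentrations. GI50: concentration for 50% inhibition of growth.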 Calls of active or inactive are those of the source. Rule as the data show it: active = GI50 up to about 1.1 µM and inactive = higher.

Assays:
Assay in all cases: DTP human tumour cell line panel, 48 h
HCC 2998 = tested on: HCC 2998
NCI-H23 = tested on: NCI-H23
KM12 = tested on: KM12
SF-295 = tested on: SF-295
NCI-H522 = tested on: NCI-H522
OVCAR-4 = tested on: OVCAR-4
NCI-H226 = tested on: NCI-H226
HOP-92 = tested on: HOP-92
NCI-H460 = tested on: NCI-H460
M14 = tested on: M14
HOP-62 = tested on: HOP-62
RXF 393 = tested on: RXF 393
OVCAR-3 = tested on: OVCAR-3
SF-268 = tested on: SF-268
SNB-19 = tested on: SNB-19
Malme-3M = tested on: Malme-3M
SK-MEL-2 = tested on: SK-MEL-2

Measured: GI50

O=C1CC(CC(=O)C2CCCCC2=O)C(=O)N1 (stereo not given)
inactive: HCC 2998 > 100 µM | NCI-H23 > 100 µM | KM12 > 100 µM | SF-295 > 100 µM | NCI-H522 > 100 µM | OVCAR-4 > 100 µM | NCI-H226 > 100 µM | HOP-92 > 100 µM | NCI-H460 > 100 µM | M14 > 100 µM | HOP-62 > 100 µM | RXF 393 > 100 µM | OVCAR-3 > 100 µM | SF-268 > 100 µM | SNB-19 > 100 µM | Malme-3M > 100 µM

O=C1CCC(c2ccccc2)C(O)(C(=O)O)C1 (stereo not given)
inactive: HCC 2998 > 100 µM | NCI-H23 > 100 µM | KM12 > 100 µM | SF-295 > 100 µM | NCI-H522 > 100 µM | OVCAR-4 > 100 µM | NCI-H226 > 100 µM | HOP-92 > 100 µM | NCI-H460 > 100 µM | M14 > 100 µM | HOP-62 > 100 µM | OVCAR-3 > 100 µM | SF-268 > 100 µM | SK-MEL-2 > 100 µM | SNB-19 > 100 µM | Malme-3M > 100 µM

CC1=C(/C=C/C2=CC(=C\C(=O)O)/CC(C3=C(C)CCCC3(C)C)C2)C(C)(C)CCC1 (stereo not given)
inactive: NCI-H23 13.9 µM | KM12 11.9 µM | SF-295 10.1 µM | NCI-H522 10.6 µM | OVCAR-4 13.7 µM | NCI-H226 11.2 µM | HOP-92 11.2 µM | NCI-H460 13.9 µM | M14 14.8 µM | HOP-62 14 µM | RXF 393 10.8 µM | OVCAR-3 14 µM | SF-268 20.9 µM | SK-MEL-2 11.3 µM | SNB-19 14.3 µM | Malme-3M 18.7 µM

Oc1ccncc1-c1cnccc1O
inactive: HCC 2998 > 100 µM | NCI-H23 > 100 µM | KM12 > 100 µM | SF-295 > 100 µM | NCI-H522 > 100 µM | NCI-H226 > 100 µM | HOP-92 > 100 µM | NCI-H460 37.5 µM | M14 > 100 µM | RXF 393 > 100 µM | OVCAR-3 > 100 µM | Malme-3M > 100 µM

CC(=O)O[C@]12CCCCC1C1(O)C(O)CCCCC12 (stereo not given in full)
inactive: NCI-H23 > 100 µM | KM12 > 100 µM | SF-295 > 100 µM | NCI-H522 > 100 µM | OVCAR-4 > 100 µM | NCI-H226 > 100 µM | NCI-H460 > 100 µM | M14 > 100 µM | HOP-62 > 100 µM | RXF 393 > 100 µM | SF-268 > 100 µM | SK-MEL-2 > 100 µM | SNB-19 > 100 µM | Malme-3M > 100 µM

C=C(COC(C)=O)CC(OC(C)=O)c1ccccc1 (stereo not given)
inactive: HCC 2998 > 100 µM | NCI-H23 > 100 µM | KM12 > 100 µM | SF-295 > 100 µM | NCI-H522 > 100 µM | OVCAR-4 > 100 µM | NCI-H226 > 100 µM | HOP-92 > 100 µM | NCI-H460 > 100 µM | M14 > 100 µM | HOP-62 > 100 µM | RXF 393 > 100 µM | OVCAR-3 > 100 µM | SF-268 > 100 µM | SK-MEL-2 > 100 µM | SNB-19 > 100 µM

COc1cc(C2C(Cl)C(=O)N2n2cnc3ccccc3c2=O)ccc1O (stereo not given)
inactive: HCC 2998 > 100 µM | NCI-H23 39.1 µM | KM12 > 100 µM | SF-295 > 100 µM | NCI-H522 34 µM | OVCAR-4 94.4 µM | NCI-H226 > 100 µM | NCI-H460 > 100 µM | M14 > 100 µM | HOP-62 > 100 µM | RXF 393 67.6 µM | OVCAR-3 85.1 µM | SF-268 76.4 µM | SK-MEL-2 > 100 µM | SNB-19 > 100 µM | Malme-3M > 100 µM

O=C1NC2(CCCC2)C2CCCCC12O (stereo not given)
inactive: NCI-H23 > 100 µM | KM12 > 100 µM | SF-295 > 100 µM | NCI-H522 > 100 µM | OVCAR-4 > 100 µM | HOP-92 > 100 µM | NCI-H460 > 100 µM | M14 > 100 µM | HOP-62 > 100 µM | RXF 393 > 100 µM | OVCAR-3 > 100 µM | SF-268 > 100 µM | SK-MEL-2 > 100 µM | SNB-19 > 100 µM | Malme-3M > 100 µM

Cc1cc(C)cc(NC(=O)CCC(=O)C2CCC/C2=N\NC(=O)C(=O)NN)c1 (stereo not given)
inactive: HCC 2998 > 100 µM | NCI-H23 > 100 µM | KM12 > 100 µM | SF-295 > 100 µM | OVCAR-4 > 100 µM | NCI-H226 > 100 µM | NCI-H460 > 100 µM | M14 > 100 µM | RXF 393 > 100 µM | OVCAR-3 > 100 µM | SF-268 > 100 µM | SK-MEL-2 > 100 µM | SNB-19 > 100 µM | Malme-3M > 100 µM

N#CC1=C(O)NC(O)=C(C#N)C1c1ccc(C2C(C#N)=C(O)NC(O)=C2C#N)cc1
inactive: HCC 2998 > 100 µM | NCI-H23 > 100 µM | KM12 > 100 µM | SF-295 > 100 µM | NCI-H522 19.7 µM | OVCAR-4 > 100 µM | NCI-H226 > 100 µM | NCI-H460 46.5 µM | M14 > 100 µM | HOP-62 > 100 µM | RXF 393 > 100 µM | OVCAR-3 > 100 µM | SF-268 > 100 µM | SK-MEL-2 > 100 µM | SNB-19 > 100 µM | Malme-3M > 100 µM

c1cc(N(CCn2cccn2)CCn2cccn2)cc(N(CCn2cccn2)CCn2cccn2)c1
inactive: HCC 2998 > 100 µM | KM12 > 100 µM | SF-295 > 100 µM | NCI-H522 > 100 µM | OVCAR-4 > 100 µM | HOP-92 > 100 µM | NCI-H460 > 100 µM | M14 > 100 µM | HOP-62 > 100 µM | RXF 393 > 100 µM | OVCAR-3 > 100 µM | SF-268 > 100 µM | SK-MEL-2 > 100 µM | SNB-19 > 100 µM

CC1(C)CC(N2CCN(C3CC(C)(C)NC(C)(C)C3)CC2)CC(C)(C)N1
inactive: HCC 2998 > 100 µM | NCI-H23 > 100 µM | KM12 > 100 µM | SF-295 > 100 µM | NCI-H522 > 100 µM | OVCAR-4 > 100 µM | HOP-92 > 100 µM | NCI-H460 > 100 µM | M14 > 100 µM | HOP-62 > 100 µM | RXF 393 > 100 µM | OVCAR-3 > 100 µM | SF-268 > 100 µM | SNB-19 > 100 µM

O=C(/C=C/c1ccc(Cl)c(Cl)c1)c1ccccc1Cl
inactive: HCC 2998 10.5 µM | NCI-H23 13.4 µM | KM12 8.13 µM | SF-295 13.7 µM | NCI-H522 11.8 µM | OVCAR-4 14.1 µM | NCI-H226 16.6 µM | HOP-92 16.7 µM | NCI-H460 11.6 µM | M14 6.24 µM | HOP-62 18.7 µM | RXF 393 17.2 µM | OVCAR-3 9.27 µM | SF-268 6.64 µM | SNB-19 10.3 µM | Malme-3M 16.6 µM
